The text below walks through data of PMC10303384, “The Effect of Terbinafine and Its Ionic Salts on Certain Fungal Plant Pathogens” (Molecules, 2023).

Where “and” joins values, the source holds several entries; their conditions need not be identical. Identical values can stand only once. Like-named read-outs stand apart in the source and are kept apart here.

For one data set, the system named is Valsa malicola (V. mali). The data set is described as follows: In vitro fungicidal activity, mycelial (hyphae) growth inhibition on PDA. It counts as cell-based.
The test system of data set [1] is Botrytis cinerea (B. cinerea). The data set is described as above. It counts as cell-based.
Data set [2] relates to Pyricularia oryzae (P. oryzae). In words: microbe, parasite or virus in culture. In kind it is cell-based. The note with it: for Inhibition Rate at 50 mg/L (%) P. o: mean ± SD of three replicates.
The subject of data set [3] is Phomopsis capsici (P. capsica). In words: In vitro fungicidal activity, mycelial (hyphae) growth inhibition on PDA. In kind it is cell-based.
Data set [4] relates to Alternaria solani (A. solani). Described as above. It counts as cell-based.
Data set [5] deals with Rhizoctonia solani (R. solani). In words: microbe, parasite or virus in culture. In kind it is cell-based.
For data set [6], the system named is Fusarium graminearum (F. graminearum). The data set is described as follows: microbe, parasite or virus in culture. Conditions: for Inhibition Rate at 50 mg/L (%) F. g: mean ± SD of three replicates. In kind it is cell-based.
Data set [7] has as its system Pythium aphanidermatum (P. aphanidermatum). The data set is described as follows: In vitro fungicidal activity, mycelial (hyphae) growth inhibition on PDA. It counts as cell-based.
A short description of data set [8]: Solubility classification in representative solvents (Vogel protocol). It counts as physicochemical. Conditions: 25 °C, test amount 0.1 g; for solubility: thermodynamic from solid. As for the experimental part: This investigation details how to determine the solubility of terbinafine and its salts, guided by the experimental protocol in Vogel’s Textbook of Practical Organic Chemistry. Based on the Snyder polarity index values of the representative solvents, each solvent was tested for its ability to dissolve the target analytes. The solubility data was classified into three categories based on the observed extent of dissolution. […] The experimental procedures were performed at 25 °C and under ambient pressure.

Data set [9] is described as follows: Solubility of saturated solutions by HPLC at 25 °C. In kind it is physicochemical. The note with it: for solubility at 15 min: thermodynamic from solid. From the text:
The filtrate was then passed through a 0.22 μm nylon membrane filter and subjected to HPLC analysis. Based on Wang’s report about the chromatographic parameters, modifications to the mobile phase ratio were made. The replicability of the results was ensured by performing each measurement in triplicate.

Data set [10] is described as follows: Surface tension of saturated aqueous solutions, Du Noüy ring method. The note with it: 25 °C.
Description: This method involved adjusting the stage positioning of the solvent container such that a platinum ring could be immersed below the liquid interface or pulled through the meniscus. […] The maximum force was recorded as the surface tension of the solvent. To ensure accuracy, the platinum ring was thoroughly cleaned between each measurement through rinsing with double-distilled water and wiping it dry. The surface tension determination was performed in quadruplicate.
Data set [11] has as its system B. cinerea on cherry tomatoes. In words: In vivo antifungal bioassay on cherry tomatoes. Further details: species or system Botrytis cinerea. Conditions: 20 mg/L; for Diameter of infection (cm) 4 days: 4 days after treatment; for Diameter of infection (cm) 7 days: 7 days after treatment.
[12] abbreviates: Fusarium graminearum, F. graminearum.

As to `CN(C/C=C/C#CC(C)(C)C)Cc1cccc2ccccc12.O=C(O)C1C(C(=O)O)[C@@]2(Cl)C(Cl)=C(Cl)[C@]1(Cl)C2(Cl)Cl` [TIS 2, (E)-N,6,6-trimethyl-N-(naphthalen-1-ylmethyl)hept-2-en-4-yn-1-aminium (1S,4R)-3-carboxy-1,4,5,6,7,7-hexachlorobicyclo [2.2.1]hept-5-ene-2-carboxylate], the “Inhibition Rate at 50 mg/L (%) V. m” value in the data set with Valsa malicola (V. mali) (mean ± SD of three replicates) is 100 ± 0%. For the same molecule, the “EC50 (mg/L)” value with Valsa malicola (V. mali) (V. mali) came to 4.28 mg/L. In addition, in the data set on Valsa malicola (V. mali) (V. mali, read-out: EC50 (μmol/L)), the EC50 was 6.29 µmol/L. For the same molecule, the “Inhibition Rate at 50 mg/L (%) B. c” value in [1] (mean ± SD of three replicates) is 100 ± 0%. Moreover, in [1] (B. cinerea), the “EC50 (mg/L)” value is on record as 0.25 mg/L. Moreover, the EC50 in [1] (B. cinerea, read-out: EC50 (μmol/L)) came to 0.37 µmol/L. Besides, the “Inhibition Rate at 50 mg/L (%) P. o” value in [2] was found to be 96.09 ± 0.36%. For the same molecule, the “EC50 (mg/L)” value in [2] (P. oryzae) stood at 0.88 mg/L. Further, the EC50 in data set [2] (P. oryzae, read-out: EC50) came out at 1.29 µmol/L. Moreover, in [3] (mean ± SD of three replicates), the “Inhibition Rate at 50 mg/L (%) P. c” value came to 43.85 ± 1.61%. For the same molecule, in [4] (mean ± SD of three replicates), the “Inhibition Rate at 50 mg/L (%) A. s” value was determined as 98.8 ± 0%. Further, the “EC50 (mg/L)” value in data set [4] (A. solani) is recorded as 0.18 mg/L. Besides, the EC50 in [4] (A. solani, read-out: EC50 (μmol/L)) worked out at 0.27 µmol/L. Besides, in [5], the “EC50 (mg/L)” value is 3.32 mg/L and the “Inhibition Rate at 50 mg/L (%) R. s” value was 80.75 ± 0.72%. The EC50 in [5] (read-out: EC50) is 4.88 µmol/L. Also, the “Inhibition Rate at 50 mg/L (%) F. g” value in data set [6] worked out at 100 ± 0%. The “EC50 (mg/L)” value in data set [6] (F. graminearum) is 0.16 mg/L. Also, in data set [6] (F. graminearum, read-out: EC50), the EC50 turned out to be 0.24 µmol/L. Further, the “Inhibition Rate at 50 mg/L (%) P. a” value in data set [7] (mean ± SD of three replicates) stood at 69.65 ± 1.7%. Besides, the “Solubility in n-Hexane” value in data set [8] (Snyder polarity index 0.0) is recorded as “− (“−” means insoluble in a 3 mL solvent, poor solubility)”. Further, the “Solubility in Toluene” value in data set [8] (Snyder polarity index 2.3) is listed as “− (“−” means insoluble in a 3 mL solvent, poor solubility)”. Besides, the “Solubility in Chloroform” value in [8] (Snyder polarity index 4.1) is reported as “− (“−” means insoluble in a 3 mL solvent, poor solubility)”. In data set [8] (Snyder polarity index 4.3), the “Solubility in Ethyl acetate” value is “− (“−” means insoluble in a 3 mL solvent, poor solubility)” and the “Solubility in Isopropanol” value is “− (“−” means insoluble in a 3 mL solvent, poor solubility)”. Further, in [8] (Snyder polarity index 5.1), the “Solubility in Acetone” value is given as “− (“−” means insoluble in a 3 mL solvent, poor solubility)”. Besides, the “Solubility in Acetonitrile” value in data set [8] (Snyder polarity index 6.2) is on record as “− (“−” means insoluble in a 3 mL solvent, poor solubility)”. Moreover, the “Solubility in DMSO” value in data set [8] (Snyder polarity index 6.5) is given as “+ (“+” means soluble in a 1 mL solvent, good solubility)”. Further, in data set [8] (Snyder polarity index 6.6), the “Solubility in Methanol” value is listed as “− (“−” means insoluble in a 3 mL solvent, poor solubility)”. Also, the “Solubility in Water” value in [8] (Snyder polarity index 9.0) is reported as “− (“−” means insoluble in a 3 mL solvent, poor solubility)”. In addition, in data set [9] (Table S1), the “Solubility, Acetone” value was 8.23 µM; the “Solubility, Acetonitrile” value is 0.155 µM; the “Solubility, Chloroform” value amounted to 1.39 µM; the “Solubility, Ethyl acetate” value was 0.456 µM. Also, in data set [9] (Table S1), the “Solubility, Isopropanol” value came out at 0.0703 µM; the “Solubility, Methanol” value was found to be 0.0554 µM; the “Solubility, Toluene” value stood at 0.366 µM; the “Solubility, Water” value was 5.62 µM. The “Solubility, n-Hexane” value in [9] (Table S1) came out at 0.0221 µM. In addition, the “surface tension of the saturated aqueous solution” value in [10] was 62.78 mN·m^−1.
As for `CN(C/C=C/C#CC(C)(C)C)Cc1cccc2ccccc12.O=C(O)c1ccccc1O` [TIS 1, (E)-N,6,6-trimethyl-N-(naphthalen-1-ylmethyl)hept-2-en-4-yn-1-aminium 2-hydroxybenzoate], the EC50 in the data set with Valsa malicola (V. mali) stood at 2.24 µg/mL; in the data set with Valsa malicola (V. mali) (read-out: EC50 (μmol/L)) it was 5.21 µmol/L; in data set [1] (Botrytis cinerea), 0.14 µg/mL; in data set [1] (read-out: EC50 (μmol/L)), 0.32 µmol/L; in [2] (Pyricularia oryzae, P. oryzae) it was 0.47 µg/mL; in data set [2] (read-out: EC50 (μmol/L), P. oryzae) it was 1.1 µmol/L. Besides, the EC50 was 0.13 µg/mL in data set [4] (Alternaria solani); 0.3 µmol/L in data set [4] (read-out: EC50 (μmol/L)); 2.49 µg/mL in data set [5] (Rhizoctonia solani); 5.81 µmol/L in data set [5] (read-out: EC50 (μmol/L)); 0.1 µg/mL in data set [6] (setting [12]); 0.23 µmol/L in data set [6] (read-out: EC50 (μmol/L), F. graminearum). Also, the “Inhibition Rate at 50 mg/L (%) V. m” value with Valsa malicola (V. mali) was found to be 100 ± 0%. The “Inhibition Rate at 50 mg/L (%) B. c” value in [1] is listed as 100 ± 0%. The “Inhibition Rate at 50 mg/L (%) P. o” value in data set [2] turned out to be 99.05 ± 0.21%. For the same molecule, the inhibition at 50 µg/mL in data set [3] (Diaporthe capsici, 50 mg/L, read-out: Inhibition Rate at 50 mg/L (%) P. c) was found to be 47 ± 1.18%; in data set [7] (Pythium aphanidermatum, 50 mg/L, read-out: Inhibition Rate at 50 mg/L (%) P. a), 74.61 ± 0.38%. In addition, the “Inhibition Rate at 50 mg/L (%) A. s” value in data set [4] was determined as 100 ± 0%. Further, the “Inhibition Rate at 50 mg/L (%) R. s” value in data set [5] is given as 84.79 ± 1.25%. For the same molecule, the “Inhibition Rate at 50 mg/L (%) F. g” value in data set [6] is on record as 100 ± 0%. Also, the solubility in [8] (DMSO, organic solvent or mixture, Snyder polarity index 6.5, read-out: Solubility in DMSO) is over 100 mg/mL; in data set [8] (acetone, organic solvent or mixture, Snyder polarity index 5.1, read-out: Solubility in Acetone), over 100 mg/mL; in data set [8] (acetonitrile, organic solvent or mixture, Snyder polarity index 6.2, read-out: Solubility in Acetonitrile), over 100 mg/mL; in data set [8] (chloroform, organic solvent or mixture, Snyder polarity index 4.1, read-out: Solubility in Chloroform), over 100 mg/mL; in [8] (ethyl acetate, organic solvent or mixture, Snyder polarity index 4.3, read-out: Solubility in Ethyl acetate), over 100 mg/mL; in [8] (isopropanol, organic solvent or mixture, read-out: Solubility in Isopropanol), under 33.3 mg/mL. Further, the solubility in data set [8] (methanol, organic solvent or mixture, Snyder polarity index 6.6, read-out: Solubility in Methanol) is over 100 mg/mL; in data set [8] (n-hexane, organic solvent or mixture, Snyder polarity index 0.0, read-out: Solubility in n-Hexane), under 33.3 mg/mL; in data set [8] (toluene, organic solvent or mixture, Snyder polarity index 2.3, read-out: Solubility in Toluene), over 100 mg/mL; in data set [8] (water, Snyder polarity index 9.0, read-out: Solubility in Water), under 33.3 mg/mL. Besides, the solubility at 15 min in data set [9] (isopropanol, organic solvent or mixture, Table S1, read-out: Solubility, Isopropanol) worked out at 5.18 µM; in data set [9] (n-hexane, organic solvent or mixture, Table S1, read-out: Solubility, n-Hexane) it was 0.502 µM; in [9] (water, Table S1, read-out: Solubility, Water), 284 µM. Also, in [11], the “Diameter of infection (cm) 4 days” value is given as 0.78 cm. In addition, the “Diameter of infection (cm) 7 days” value in data set [11] was 1.10 cm. Also, the “surface tension of the saturated aqueous solution” value in data set [10] is 58.33 mN·m^−1.
Take `COC(=O)N(OC)c1ccccc1COc1ccn(-c2ccc(Cl)cc2)n1` [Pyraclostrobin, reference compound]: the EC50 was 0.79 µg/mL and 2.02 µM in the data set with Valsa malicola (V. mali); 0.12 µg/mL and 310 nM in [1] (Botrytis cinerea); 0.6 µg/mL and 1.54 µM in data set [2] (Pyricularia oryzae, P. oryzae); 0.23 µg/mL and 590 nM in [4] (Alternaria solani); 0.07 µg/mL and 190 nM in [5] (Rhizoctonia solani); 1.43 µg/mL and 3.68 µM in data set [6] (setting [12]). In data set [11], the “Diameter of infection (cm) 4 days” value is given as 0.71 cm. Besides, the “Diameter of infection (cm) 7 days” value in data set [11] is 0.92 cm.
As for `COC(=O)Nc1nc2ccccc2[nH]1` [Carbendazim, reference compound], in data set [11], the “Diameter of infection (cm) 4 days” value came to 0.85 cm and the “Diameter of infection (cm) 7 days” value is recorded as 0.92 cm.

The solubility is how much of the substance goes into solution per volume.
